{"source": "patent CN1063108A", "about": "“三氟甲基酮衍生物及其制备方法和用途” (Fujisawa Pharmaceutical Co Ltd, priority 1990, dated 1992)", "key": {"[1]": {"test_system": "human sputum elastase-induced lung hemorrhage in hamsters", "experiment": "Elastase-induced lung hemorrhage (hemoglobin in BAL cells, OD 541 nm)", "type": "in vivo, hamster", "details": "for % inhibition of lung hemorrhage / Hemorrhage (OD541nm): 5 min before elastase; for Hemorrhage (OD541nm): BAL 3 h later; for ED50, inhibition of lung hemorrhage: intratracheal, 5 min pre-dose"}, "[2]": {"test_system": "HSE-induced paw edema in C57BL mice", "experiment": "Human sputum elastase-induced mouse paw edema", "type": "in vivo", "details": "for Footpad thickness (difference right-left hind paw): 15 min before HSE 20 μg/site, measured 2 h after HSE"}, "[3]": {"test_system": "PPE-induced emphysema in Golden Syrian hamsters", "experiment": "Experimentally induced (porcine pancreatic elastase) emphysema in hamsters, lung mechanics", "type": "in vivo, hamster", "details": "for Cst (quasi-static lung compliance) / VC (vital capacity): 5 min before PPE 100 μg/site, 3 weeks later"}, "[4]": {"details": "1 μg/site intratracheal, listed as 13"}, "[5]": {"details": "10 μg/site intratracheal, listed as 13"}, "[6]": {"details": "100 μg/site intratracheal, listed as 13"}, "[7]": {"details": "1 μg/site intratracheal, listed as 19"}, "[8]": {"details": "10 μg/site intratracheal, listed as 19"}, "[9]": {"details": "100 μg/site intratracheal, listed as 19"}}, "note": "Numbered stars: 1 amine (or outer) side, 2 acyl side, 3 side chain; on linkers, the order of the positions; unused ones are H or OH. Square brackets hold non-standard residues; d marks the D form. Peptide text beside a SMILES is read from it. * marks the point of attachment. ξ: configuration not given here. 4Abz = Nc1ccc(C(=O)O)cc1; CO = O=C([*:1])[*:2]; ξV = CC(C)C(N)C(=O)O; CF3 = FC(F)(F)*", "data": [{"smiles": "CC(C)C(NC(=O)CN(C(=O)[C@@H](NC(=O)c1ccc(C(=O)NCCN2CCOCC2)cc1)C(C)C)C1Cc2ccccc2C1)C(=O)C(F)(F)F.Cl", "note": "(stereo partly drawn) [实施例29, 3(RS)-[[4-[[2-(4-吗啉代)乙基]氨基羰基]苯基羰基]-L-缬氨酰基-N-(2-二氢化茚基)甘氨酰基]氨基-1，1，1-三氟-4-甲基-2-氧代戊烷的盐酸盐]", "values": [{"measurement": "% inhibition of lung hemorrhage", "setting": "[1]; 1 μg/site intratracheal", "result": 14.9, "unit": "%"}, {"measurement": "Hemorrhage (OD541nm)", "setting": "[1]; 1 μg/site intratracheal", "result": "12.05±1.95", "unit": "OD541nm"}, {"measurement": "% inhibition of lung hemorrhage", "setting": "[1]; 10 μg/site intratracheal", "result": 43.2, "unit": "%"}, {"measurement": "Hemorrhage (OD541nm)", "setting": "[1]; 10 μg/site intratracheal", "result": "8.155±1.76", "unit": "OD541nm"}, {"measurement": "% inhibition of lung hemorrhage", "setting": "[1]; 100 μg/site intratracheal", "result": 69.4, "unit": "%"}, {"measurement": "Hemorrhage (OD541nm)", "setting": "[1]; 100 μg/site intratracheal", "result": "4.545±1.49", "unit": "OD541nm"}, {"measurement": "ED50, inhibition of lung hemorrhage", "setting": "[1]", "result": 17.9, "unit": "μg/位点"}]}, {"smiles": "CC(C)C(NC(=O)[C@@H]1CCCN1C(=O)[C@@H](NC(=O)c1ccc(C(=O)NCC(=O)O)cc1)C(C)C)C(=O)C(F)(F)F", "note": "(stereo partly drawn) [实施例13, 3(RS)-[[4-(羧基甲基氨基羰基)苯基羰基]-L-缬氨酰基-L-脯氨酰基]氨基-1，1，1-三氟-4-甲基-2-氧代戊烷]", "values": [{"measurement": "Hemorrhage (OD541nm)", "setting": "[1]; [4]", "result": "11.63±1.99", "unit": "OD541nm"}, {"measurement": "% inhibition of lung hemorrhage", "setting": "[1]; [4]", "result": 21.6, "unit": "%"}, {"measurement": "Hemorrhage (OD541nm)", "setting": "[1]; [5]", "result": "4.217±1.02", "unit": "OD541nm"}, {"measurement": "% inhibition of lung hemorrhage", "setting": "[1]; [5]", "result": 74.5, "unit": "%"}, {"measurement": "Hemorrhage (OD541nm)", "setting": "[1]; [6]", "result": "0.6384±0.222", "unit": "OD541nm"}, {"measurement": "% inhibition of lung hemorrhage", "setting": "[1]; [6]", "result": 100.0, "unit": "%"}, {"measurement": "ED50, inhibition of lung hemorrhage", "setting": "[1]; listed as 13", "result": 3.0, "unit": "μg/位点"}]}, {"smiles": "CC(C)C(NC(=O)[C@@H]1CCCN1C(=O)[C@@H](NC(=O)c1ccc(C(=O)NCC(=O)O)cc1)C(C)C)C(=O)C(F)(F)F", "note": "(stereo partly drawn) [实施例19, 3(RS)-[[4-(羧甲基氨基羰基)苯基羰基]-L-缬氨酰基-L-脯氨酰基]氨基-1，1，1-三氟-4-甲基-2-氧代戊烷]", "values": [{"measurement": "Hemorrhage (OD541nm)", "setting": "[1]; [7]", "result": "11.59±1.40", "unit": "OD541nm"}, {"measurement": "% inhibition of lung hemorrhage", "setting": "[1]; [7]", "result": 10.8, "unit": "%"}, {"measurement": "Hemorrhage (OD541nm)", "setting": "[1]; [8]", "result": "1.663±0.690", "unit": "OD541nm"}, {"measurement": "% inhibition of lung hemorrhage", "setting": "[1]; [8]", "result": 93.1, "unit": "%"}, {"measurement": "Hemorrhage (OD541nm)", "setting": "[1]; [9]", "result": "0.2141±0.020", "unit": "OD541nm"}, {"measurement": "% inhibition of lung hemorrhage", "setting": "[1]; [9]", "result": 105.2, "unit": "%"}, {"measurement": "ED50, inhibition of lung hemorrhage", "setting": "[1]; listed as 19", "result": 2.4, "unit": "μg/位点"}, {"measurement": "% inhibition of paw edema", "setting": "[2]; 1 mg/Kg s.c.", "result": 6.4, "unit": "%"}, {"measurement": "Footpad thickness (difference right-left hind paw)", "setting": "[2]; 1 mg/Kg s.c.", "result": "43.8±5.67 ×10-2mm"}, {"measurement": "% inhibition of paw edema", "setting": "[2]; 10 mg/Kg s.c.", "result": 20.9, "unit": "%"}, {"measurement": "Footpad thickness (difference right-left hind paw)", "setting": "[2]; 10 mg/Kg s.c.", "result": "37.0±13.41 ×10-2mm"}, {"measurement": "% inhibition of paw edema", "setting": "[2]; 100 mg/Kg s.c.", "result": 42.3, "unit": "%"}, {"measurement": "Footpad thickness (difference right-left hind paw)", "setting": "[2]; 100 mg/Kg s.c.", "result": "27.0±4.66 ×10-2mm"}, {"measurement": "Cst, % inhibition", "setting": "[3]; 1 μg/site intratracheal", "result": 15, "unit": "%"}, {"measurement": "VC, % inhibition", "setting": "[3]; 1 μg/site intratracheal", "result": 12, "unit": "%"}, {"measurement": "Cst (quasi-static lung compliance)", "setting": "[3]; 1 μg/site intratracheal", "result": "1.39±0.05", "unit": "ml/cm H2O"}, {"measurement": "VC (vital capacity)", "setting": "[3]; 1 μg/site intratracheal", "result": "7.0 ± 0.1", "unit": "mL"}, {"measurement": "Cst, % inhibition", "setting": "[3]; 10 μg/site intratracheal", "result": 84, "unit": "%"}, {"measurement": "VC, % inhibition", "setting": "[3]; 10 μg/site intratracheal", "result": 65, "unit": "%"}, {"measurement": "Cst (quasi-static lung compliance)", "setting": "[3]; 10 μg/site intratracheal", "result": "0.70±0.04", "unit": "ml/cm H2O"}, {"measurement": "VC (vital capacity)", "setting": "[3]; 10 μg/site intratracheal", "result": "5.8 ± 0.1", "unit": "mL"}, {"measurement": "Cst, % inhibition", "setting": "[3]; 100 μg/site intratracheal", "result": 100, "unit": "%"}, {"measurement": "VC, % inhibition", "setting": "[3]; 100 μg/site intratracheal", "result": 97, "unit": "%"}, {"measurement": "Cst (quasi-static lung compliance)", "setting": "[3]; 100 μg/site intratracheal", "result": "0.53±0.02", "unit": "ml/cm H2O"}, {"measurement": "VC (vital capacity)", "setting": "[3]; 100 μg/site intratracheal", "result": "5.0 ± 0.1", "unit": "mL"}, {"measurement": "Potency compared with prior-art compounds by Cst and VC (in words)", "setting": "[3]; based on Cst and VC values", "result": "效力优于先有技术化合物A和B"}, {"measurement": "Effect of pretreatment on PPE-induced increase in lung mechanics (in words)", "setting": "[3]; dose-related, intratracheal pretreatment", "result": "防止了PPE诱发的肺力学增加"}]}, {"smiles": "CC(C)C(NC(=O)CN(C(=O)[C@@H](NC(=O)c1ccc(C(=O)NCC(=O)[O-])cc1)C(C)C)C1Cc2ccccc2C1)C(=O)C(F)(F)F.[Na+]", "note": "(stereo partly drawn) [实施例27, 3(RS)-[[4-(羧甲基氨基羰基)苯基羰基]-L-缬氨酰基-N-(2-二氢化茚基)甘氨酰基]氨基-1，1，1-三氟-4-甲基-2-氧代戊烷钠盐]", "values": [{"measurement": "% inhibition of lung hemorrhage", "setting": "[1]; 1 μg/site intratracheal", "result": 24.8, "unit": "%"}, {"measurement": "Hemorrhage (OD541nm)", "setting": "[1]; 1 μg/site intratracheal", "result": "10.68±1.25", "unit": "OD541nm"}, {"measurement": "% inhibition of lung hemorrhage", "setting": "[1]; 10 μg/site intratracheal", "result": 66.9, "unit": "%"}, {"measurement": "Hemorrhage (OD541nm)", "setting": "[1]; 10 μg/site intratracheal", "result": "4.878±0.917", "unit": "OD541nm"}, {"measurement": "% inhibition of lung hemorrhage", "setting": "[1]; 100 μg/site intratracheal", "result": 99.8, "unit": "%"}, {"measurement": "Hemorrhage (OD541nm)", "setting": "[1]; 100 μg/site intratracheal", "result": "0.3451±0.084", "unit": "OD541nm"}, {"measurement": "ED50, inhibition of lung hemorrhage", "setting": "[1]", "result": 3.7, "unit": "μg/位点"}]}, {"smiles": "CC(C)C(NC(=O)[C@@H]1CCCN1C(=O)[C@@H](NC(=O)c1ccc(C(=O)NCCN2CCOCC2)cc1)C(C)C)C(=O)C(F)(F)F.Cl", "note": "(stereo partly drawn) [实施例21, 3(RS)-[[4-[[2-(4-吗啉代)乙基]氨基羰基]苯基羰基]-L-缬氨酰基-L-脯氨酰基]氨基-1，1，1-三氟-4-甲基-2-氧代戊烷盐酸盐]", "values": [{"measurement": "% inhibition of lung hemorrhage", "setting": "[1]; 1 μg/site intratracheal", "result": 13.6, "unit": "%"}, {"measurement": "Hemorrhage (OD541nm)", "setting": "[1]; 1 μg/site intratracheal", "result": "12.76±1.11", "unit": "OD541nm"}, {"measurement": "% inhibition of lung hemorrhage", "setting": "[1]; 10 μg/site intratracheal", "result": 66.3, "unit": "%"}, {"measurement": "Hemorrhage (OD541nm)", "setting": "[1]; 10 μg/site intratracheal", "result": "5.372±2.06", "unit": "OD541nm"}, {"measurement": "% inhibition of lung hemorrhage", "setting": "[1]; 100 μg/site intratracheal", "result": 100.0, "unit": "%"}, {"measurement": "Hemorrhage (OD541nm)", "setting": "[1]; 100 μg/site intratracheal", "result": "0.6476±0.129", "unit": "OD541nm"}, {"measurement": "ED50, inhibition of lung hemorrhage", "setting": "[1]", "result": 4.5, "unit": "μg/位点"}]}, {"smiles": "CC(C)C(NC(=O)[C@@H]1CCCN1C(=O)[C@@H](NC(=O)Nc1ccc(C(=O)NCC(=O)O)cc1)C(C)C)C(=O)C(F)(F)F", "note": "(stereo partly drawn) [实施例23, 3(RS)-[[4-(羧甲基氨基羰基)苯基氨基羰基]-L-缬氨酰基-L-脯氨酰基]氨基-1，1，1-三氟-2-氧代-4-甲基戊烷] ({Gly-4Abz-CO}-Val-Pro-[ξV]-CF3)", "values": [{"measurement": "% inhibition of lung hemorrhage", "setting": "[1]; 1 μg/site intratracheal", "result": 16.0, "unit": "%"}, {"measurement": "Hemorrhage (OD541nm)", "setting": "[1]; 1 μg/site intratracheal", "result": "9.435±0.941", "unit": "OD541nm"}, {"measurement": "% inhibition of lung hemorrhage", "setting": "[1]; 10 μg/site intratracheal", "result": 75.6, "unit": "%"}, {"measurement": "Hemorrhage (OD541nm)", "setting": "[1]; 10 μg/site intratracheal", "result": "3.412±1.31", "unit": "OD541nm"}, {"measurement": "% inhibition of lung hemorrhage", "setting": "[1]; 100 μg/site intratracheal", "result": 102.1, "unit": "%"}, {"measurement": "Hemorrhage (OD541nm)", "setting": "[1]; 100 μg/site intratracheal", "result": "0.7258±0.303", "unit": "OD541nm"}, {"measurement": "ED50, inhibition of lung hemorrhage", "setting": "[1]", "result": 3.2, "unit": "μg/位点"}]}]}
